This note sets out measurements from US6423335B1, “Modified milk powder composition” (priority 1999, dated 2002).

Each structure is given as a SMILES string.

What all share (format): in vivo, rats (the Donryu strain)
Data set [1] can be described thus: Low protein diet feeding in rats: body weight, weight of tissues, BUN, blood profile (Example 1). As to conditions: for efficiency of protein utilization of feed / feed efficiency: versus 3% protein diet group; for level of platelets: versus suppression in 3% protein diet group. The source says: (§1) Four-week-age male rats (the Donryu strain) were fed 20% protein diet for one week. Then, glutamine (Gln) and glutamic acid (Glu) each were mixed into 3% protein diet at the level of 5% (w/w) and offered to the rats for three weeks. Also, a 20% protein diet group and a 3% protein diet group were set as controls. Upon each rat, body weight, weight of tissues, blood urea nitrogen (BUN), the level of leukocytes, the level of erythrocytes, hematocrit, the level of platelets, and production of TNF-α by peritoneal macrophage as an index of immune response were determined.

For data set [2], the system named is peritoneal macrophage. The experiment in a line: Production of TNF-α by peritoneal macrophage as an index of immune response (Example 1). The following applies: 5% (w/w) in 3% protein diet, three weeks; versus suppression in 3% protein diet group.
Source text: as §1

Data set [3] can be described thus: Commercial modified milk powder feeding in rats: body weight, weight of tissues, BUN, blood profile (Example 2). As to conditions: two weeks. The source says:
(§2) Then, using commercial modified milk powder (milk serum protein, soybean oil, lactose, and various vitamins and minerals were mixed; level of proteins was from 12 to 13% by weight) as a control, glutamine ([…] became 2, 5, 8, or 40%), and each diet was offered (free ingestion) for two weeks. Upon each rat, body weight, weight of tissues, blood urea nitrogen (BUN), the level of leukocytes, the level of erythrocytes, hematocrit, the level of platelets, and production of TNF-α by peritoneal macrophage as an index of immune response were measured.

In data set [4] the test system is peritoneal macrophage. The experiment in a line: Production of TNF-α by peritoneal macrophage as an index of immune response (Example 2). As to conditions: two weeks.
Source text: as §2

The mark [5] stands for this setting: 5% (w/w) in 3% protein diet, three weeks.
Setting [6] is: male rats, 5% (w/w) in 3% protein diet, three weeks.
The mark [7] stands for this setting: 0.3% Gln in modified milk powder.
Setting [8] is: 0.65% Gln in modified milk powder.
Where [9] appears, read: 1.5% Gln group, modified milk powder.

For `NC(=O)CC[C@H](N)C(=O)O` [Gln, glutamine], in data set [1] (5% (w/w) in 3% protein diet, three weeks, compared with 3% protein diet group), the “remarkable decrease of body weight on low protein diet” value is reported as “this phenomenon was observed”. Further, in data set [1] (setting [5]), the “efficiency of protein utilization of feed” value was “higher than those in the 3% protein diet group”, the feed efficiency entry is given as “higher than those in the 3% protein diet group” and the level of platelets entry is “improvement was observed”. Besides, the “Body weight at the end of experiment” value in data set [1] (setting [6]) is listed as 200.2 ± 3.1. Besides, the Blood urea nitrogen in data set [1] (rat, in vivo) is 18.9 ± 2.1 mg/dL. The “production of TNF-α by peritoneal macrophage” value in the data set with peritoneal macrophage [2] was “improvement was observed”. Besides, in data set [3] (setting [7]), the Blood urea nitrogen was determined as 20.5 mg/dL; the “Body weight at the end of experiment” value was 233.1; the “body weight and any of the other indexes versus control group (Gln 0%)” value was “no difference”. Besides, in data set [3] (setting [8]), the Blood urea nitrogen came out at 22.1 mg/dL, the “Body weight at the end of experiment” value is reported as 238.2 and the “body weight versus control group” value is “a slight difference”. In data set [3] (1% Gln in modified milk powder), the Blood urea nitrogen stood at 23.4 mg/dL and the “Body weight at the end of experiment” value was found to be 241.7. Further, in data set [3] (setting [9]), the “body weight as compared with the control group” value is “there were observed differences” and the “level of platelets as compared with the control group” value is on record as “there were observed differences”. In addition, in data set [3] (5% Gln in modified milk powder), the Blood urea nitrogen worked out at 24.1 mg/dL and the “Body weight at the end of experiment” value is recorded as 245.8. Also, the “production of TNF-α by peritoneal macrophage versus control group” value in the data set with peritoneal macrophage [4] (setting [8]) is recorded as “higher than that at the control group”. In addition, the “production of TNF-α by peritoneal macrophage as compared with the control group” value in the data set with peritoneal macrophage [4] (setting [9]) was “there were observed differences”.
`N[C@@H](CCC(=O)O)C(=O)O` [Glu, glutamic acid]: in data set [1] (setting [5]), the “efficiency of protein utilization of feed” value is given as “this beneficial phenomenon was not observed”, the feed efficiency result is listed as “this beneficial phenomenon was not observed” and the level of platelets result is “no improvement”. Also, in data set [1] (setting [6]), the Blood urea nitrogen is 18.8 ± 2.9 mg/dL and the “Body weight at the end of experiment” value was 180.5 ± 3.8. Moreover, in the data set on peritoneal macrophage [2], the “production of TNF-α by peritoneal macrophage” value is “no improvement”.
